Source: US7056450B2, “Highly concentrated aqueous solutions of N,N-dialkyl-glycines and process for preparation thereof” (Showa Denko K.K., priority 2001, dated 2006)

Test: Standing test of aqueous solution for crystalline deposit
Format: physicochemical

| Compound | crystalline deposit on standing (aqueous 30% by mass solution, left standing at room temperature) | crystalline deposit on standing (aqueous 60% by mass solution, left standing at 0° C. for 10 days) |
| --- | --- | --- |
| CN(C)CC(=O)[O-].[Na+] [N,N-dimethylglycine sodium salt] | crystalline N,N-dimethylglycine sodium salt deposited | – |
| CN(C)CC(=O)O [N,N-dimethylglycine] | – | no crystalline deposit was observed |
